# Results published in patent US20190369111A1, “MOLECULAR KINETICS EVALUATION METHOD AND SCREENING METHOD” (Tokyo University of Science Foundation, priority 2016, published 2019).
# Biological target: T1, wild-type K-Ras protein (Homo sapiens, UniProt P01116)
# T1 construct: expressed in transfected cells; host or cells: HeLa cells, transient transfection
# Experiment: Degradation (knockdown) of forcibly expressed wild-type K-Ras protein in HeLa cells, FACS analysis
# Format: cell-based
# Method: A plasmid expressing a wild-type K-Ras protein (K-Ras-WT) was prepared using a plasmid (pMIR-DsRed-IRES-ecDHFR-HA-GFP) expressing an ecDHFR protein by RF cloning. The full-length cDNA clone (Accession No. AK292510) of a human K-ras gene was purchased from Independent Administrative Institution, the National Institute of Technology and Evaluation. PCR amplification was performed using KOD-Plus-Neo (TOYOBO CO., LTD) as a PCR enzyme.
# The plasmid was introduced into HeLa cells to transiently overexpress a wild-type K-Ras protein (specifically, a fusion protein of a wild-type K-Ras protein and GFP via a HA tag) or a DsRed protein for comparison in the cells.
# ScreenFect™A (Wako Pure Chemical Industries, Ltd.) as a transfection reagent was used to introduce the plasmid into HeLa cells by a routine procedure. The HeLa cells into which the plasmid had been introduced were seeded in a 24-well plate at a cell density of 4×10^4 cells/well, and then cultured under conditions of 37° C. and 5 vol % CO2 for 40 hours. […]
# A BD FACSCanto™ II (BD Biosciences) was used for flow cytometry, and the expression levels of GFP and DsRed protein in the cells were quantified. […] The GFP/DsRed ratio per cell was computed using an analysis software FlowJo™ (TOMY Digital Biology Co., Ltd.), and degradation (knockdown) of the wild-type K-Ras protein by TUS-007 was determined from a shift in a graph.
# T1 sequence (P01116 1-188 isoform P01116-2): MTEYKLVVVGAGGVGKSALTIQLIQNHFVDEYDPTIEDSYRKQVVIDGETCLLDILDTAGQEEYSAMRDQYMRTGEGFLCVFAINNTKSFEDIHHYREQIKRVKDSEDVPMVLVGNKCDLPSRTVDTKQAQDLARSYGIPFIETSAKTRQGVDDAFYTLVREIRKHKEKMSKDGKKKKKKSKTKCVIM
compound,measurement,setting,value
CC[C@@H](C)[C@H](NC(=O)CCCCCCNC(=O)[C@H](CC(C)C)NC(=O)CNC(=O)c1cc(Cl)ccc1Cl)C(=O)Nc1ccc2[nH]c(Cc3c[nH]c4ccccc34)nc2c1 [TUS-007],degradation (knockdown) of wild-type K-Ras protein (shift of GFP/DsRed ratio graph),"24 hours after addition, vs control (DMSO)",degradation of the wild-type K-Ras protein was induced
same,degradation of wild-type K-Ras protein when MLN2238 is added together,"both TUS-007 and MLN2238 added, compared with TUS-007 alone",degradation of the wild-type K-Ras protein was inhibited
